Experimental findings from ChEMBL document CHEMBL2169787, “The biology and chemistry of antifungal agents: a review” (2012) are described below.

Values after ≈ are worked out from the molar mass of the structure shown.

Holding throughout (format): functional
For assay [1], the system named is Aspergillus niger. The assay is described as follows: Antifungal activity against Aspergillus niger assessed as growth inhibition.
Assay [2] has as its system Aspergillus flavus. In words: Antifungal activity against Aspergillus flavus assessed as growth inhibition.
In a further assay the test system is Trichophyton rubrum. The assay is described as follows: Antifungal activity against Trichophyton rubrum.
The subject of the next assay is Microsporum. The assay is described as follows: Antifungal activity against Microsporum […].
Assay [3] has as its system Aspergillus fumigatus. The assay is described as follows: Antifungal activity against Aspergillus fumigatus.
The subject of assay [4] is Cryptococcus neoformans. The assay is described as follows: Antifungal activity against Cryptococcus neoformans.
The subject of a further assay is Candida tropicalis. In words: Antifungal activity against Candida tropicalis.
The test system of assay [5] is Candida parapsilosis. The assay is described as follows: Antifungal activity against Candida parapsilosis. The settings on record: Lodderomyces parapsilosis.
The subject of assay [6] is Cryptococcus neoformans. The assay is described as follows: Antifungal activity against Cryptococcus neoformans after 72 hrs by NCCLS broth microdilution method.
The next assay relates to Candida albicans. In words: Antifungal activity against Candida albicans. The following applies: for MIC: Candida albicans.
Assay [7] has as its system Aspergillus flavus. In words: Antifungal activity against Aspergillus flavus. The settings on record: for MIC: Aspergillus flavus.
The test system of the next assay is Fusarium verticillioides. The assay is described as follows: Antifungal activity against Fusarium moniliforme.
For a further assay, the system named is Lasiodiplodia theobromae. The assay is described as follows: Antifungal activity against Botryodiplodia theobromae.
The subject of another assay is Candida. The assay is described as follows: Antifungal activity against Candida spp.
Another assay deals with Fusarium oxysporum. The assay is described as follows: Antifungal activity against Fusarium oxysporum.
Assay [8] relates to Aspergillus niger. The assay is described as follows: Antifungal activity against Aspergillus niger.
The next assay relates to Trichoderma viride. The assay is described as follows: Antifungal activity against Trichoderma viride.
The next assay relates to Aspergillus ochraceus. In words: Antifungal activity against Aspergillus ochraceus.
In the next assay the test system is Microsporum canis. In words: Antifungal activity against Microsporum canis.
Assay [9] relates to Trichophyton mentagrophytes. In words: Antifungal activity against Trichophyton mentagrophytes.
Another assay relates to Sporothrix schenckii. The assay is described as follows: Antifungal activity against Sporothrix schenckii.
Assay [10] relates to Aspergillus fumigatus. The assay is described as follows: Antifungal activity against Aspergillus fumigatus assessed as growth inhibition.
For assay [11], the system named is Candida parapsilosis. The assay is described as follows: Antifungal activity against Candida parapsilosis ATCC 22019. The following applies: Lodderomyces parapsilosis.
The test system of assay [12] is Mycobacterium tuberculosis. The assay is described as follows: Antibacterial activity against Mycobacterium tuberculosis.
For another assay, the system named is Staphylococcus aureus. The assay is described as follows: Antibacterial activity against Staphylococcus aureus.

With `N#CC(=C1CCCC1)c1nc2cc(Cl)ccc2o1`, the “growth inhibition (GI)” value with Aspergillus niger [1] and in the assay with Aspergillus flavus [2] was 60% throughout.
The term MIC denotes the least concentration at which growth counts as inhibited. A high value points to a need for much substance. As to `OC(CN1CCN(c2ccc(OCc3ccncc3)cc2)CC1)(Cn1cncn1)c1ccccc1` (stereo not given), the minimal inhibitory concentration (MIC) with Trichophyton rubrum, against Microsporum, with Aspergillus fumigatus [3], against Cryptococcus neoformans [4], against Candida tropicalis and in the assay with Candida parapsilosis [5] was 0.0625 µg/mL (≈ 0.133 µM) throughout.
As for `N#CC(=C1CCCCC1)c1nc2cc(Cl)ccc2o1`, the “growth inhibition (GI)” value in the assay on Aspergillus niger [1] and in the assay on Aspergillus flavus [2] was 60% each time.
By MIC50 is commonly meant the lowest concentration that inhibits either 50% of growth or 50% of the strains tested, depending on the study. In the assay on Cryptococcus neoformans [6], `CN(C/C=C/C#CC(C)(C)C)Cc1cccc2ccccc12` [TERBINAFINE] showed an MIC50 of 0.25 µg/mL (≈ 0.858 µM).
As for `CCCCOc1ccccc1N1CCN(CCc2nnn(C(C)C(O)(Cn3cncn3)c3ccc(F)cc3F)n2)CC1` (stereo not given), the MIC in the assay with Cryptococcus neoformans [4], in the assay with Candida tropicalis, in the assay with Candida parapsilosis [5] and against Candida albicans was 1 µg/mL (≈ 1.72 µM) in each case.
In the case of `OC(CN1CCN(c2ccc(OCc3ccc(F)cc3)cc2)CC1)(Cn1cncn1)c1ccccc1` (stereo not given), the MIC against Trichophyton rubrum, in the assay with Microsporum, in the assay with Aspergillus fumigatus [3], against Cryptococcus neoformans [4], against Candida tropicalis and with Candida parapsilosis [5] was 0.0625 µg/mL (≈ 0.128 µM) throughout.
As to `OCC1CC(c2ccc(-c3ccccc3)cc2)N(c2ccc(F)cc2)O1` (stereo not given), the MIC against Aspergillus flavus [7], in the assay with Fusarium verticillioides and in the assay with Lasiodiplodia theobromae was 2.5 µg/mL (≈ 7.16 µM) throughout.
`CCOC(=O)C1(C)C2(C(=O)N(c3ccccc3)N=C2C)C1(c1ccccc1)c1ccccc1` (stereo not given) came in with an MIC in the assay with Candida of 25 µg/mL (≈ 57 µM).
Consider `COc1ccc(N2OC(CO)CC2c2ccc(-c3ccccc3)cc2)cc1` (stereo not given), for which the minimal inhibitory concentration (MIC) in the assay with Aspergillus flavus [7], against Fusarium verticillioides and in the assay with Lasiodiplodia theobromae was 2.5 µg/mL (≈ 6.92 µM) in each case.
Turning to `CCCCCCCCCCCCCCCc1nnc(CCCCCCC/C=C/CC(O)CCCCCC)o1` (stereo not given), the “inhibition zone (IZ)” value in the assay with Fusarium oxysporum, with Aspergillus niger [8], in the assay with Trichoderma viride and in the assay on Candida albicans was 15 mm each time.
Consider `O=C1CCCC2=C1C(c1ccc(F)cc1)N1C(=O)CSC1=N2` (stereo not given), for which the MIC in the assay on Aspergillus flavus [7] and in the assay with Aspergillus ochraceus was 40 µg/mL (≈ 126 µM) each time.
Take `CCC(C)n1ncn(-c2ccc(N3CCN(c4ccc(OCC5COC(Cn6cncn6)(c6ccc(Cl)cc6Cl)O5)cc4)CC3)cc2)c1=O` (stereo not given) [ITRACONAZOLE]: the MIC against Trichophyton rubrum came to 0.0625 µg/mL (≈ 0.0886 µM); in the assay on Microsporum, 0.0625 µg/mL (≈ 0.0886 µM); with Aspergillus fumigatus [3] it was 0.0625 µg/mL (≈ 0.0886 µM); in the assay on Candida it was 2 µg/mL (≈ 2.83 µM); in the assay with Cryptococcus neoformans [4], 0.0625 µg/mL (≈ 0.0886 µM); in the assay with Candida tropicalis, 0.0625 µg/mL (≈ 0.0886 µM). Moreover, in the assay on Candida parapsilosis [5], it took 0.0625 µg/mL (≈ 0.0886 µM) to inhibit growth (MIC).
For `O=C(O)CCSC1=C(CO)C(=O)c2ccccc2C1=O`, the minimum inhibitory concentration (MIC) (in the assay with Microsporum canis; against Aspergillus fumigatus [3]; against Cryptococcus neoformans [4]; in assay [9]; with Sporothrix schenckii; against Candida albicans) was 0.78 µg/mL (≈ 2.67 µM) each time.
Turning to NYSTATIN, in the assay on Candida, the inhibition zone (IZ) was 20 mm.
`N=C1SC(c2ccc(Cl)cc2)c2cnn(C(=O)c3ccc(Cl)cc3)c2C1=N` (stereo not given): the “growth inhibition (GI)” value was 61% in the assay on Aspergillus fumigatus [10] and 60% in the assay with Aspergillus niger [1].
In the assay on Cryptococcus neoformans [6], `CCC(c1cccc2ccccc12)N(C)C/C=C/C#CC(C)(C)C` (stereo not given) returned an MIC50 of 0.5 µg/mL (≈ 1.56 µM).
For the compound `CC1=NN(c2ccccc2)C(=O)C12C(C(=O)OC(C)(C)C)C2(c1ccccc1)c1ccccc1` (stereo not given), in the assay on Candida, it took 25 µg/mL (≈ 55.2 µM) to inhibit growth (MIC).
As to `COc1ccc(N2OC(c3ccccc3)CC2c2ccc(-c3ccccc3)cc2)cc1` (stereo not given), the minimum inhibitory concentration (MIC) in the assay with Aspergillus flavus [7], with Fusarium verticillioides and in the assay on Lasiodiplodia theobromae was 2.5 µg/mL (≈ 6.13 µM) in each case.
Take `C[C@H](CCCN1C=NN(CC(O)(Cn2cncn2)c2ccc(F)cc2F)C1)[C@H]1CC[C@H]2[C@@H]3CC[C@@H]4CCCC[C@]4(C)[C@H]3CC[C@]12C` (stereo not given in full): the MIC against Candida parapsilosis [11], against Sporothrix schenckii and in the assay on Candida albicans was 2.18 µg/mL (≈ 3.42 µM) throughout.
As to `N#CC1=C(N)OC2=C(SC3=NC4=C(C(=O)CCC4)C(c4ccc(F)cc4)N32)C1c1ccc(Cl)cc1` (stereo not given), the MIC in the assay with Aspergillus flavus [7] and with Aspergillus ochraceus was 40 µg/mL (≈ 79.2 µM) each time.
For the compound `O=C(Nc1ccccc1-c1nnc(-c2ccccc2)o1)c1ccccc1`, the results for the “inhibition zone (IZ)” value with Aspergillus flavus [7] and in the assay with Aspergillus niger [8] were 11 mm and 15 mm, respectively.
On to `NC(=S)N1N=C(c2ccc(Cl)cc2)CC1c1cccnc1` (stereo not given), for which the values for the MIC (in assay [12]; against Staphylococcus aureus) were 6.25 µg/mL (≈ 19.7 µM) and 128 µg/mL (≈ 404 µM), respectively.
For `COC(=O)Nc1nc2ccccc2[nH]1` [CARBENDAZIM], the “growth inhibition (GI)” value was 92% with Aspergillus fumigatus [10] and 90% in the assay on Aspergillus niger [1].
On to `Fc1ccc(N2OC(c3ccccc3)CC2c2ccc(-c3ccccc3)cc2)cc1` (stereo not given), for which the MIC in the assay on Aspergillus flavus [7], against Fusarium verticillioides and against Lasiodiplodia theobromae was 2.5 µg/mL (≈ 6.32 µM) in each case.
In turn, `OC(Cn1cncn1)(Cn1cncn1)c1ccc(F)cc1F` [FLUCONAZOLE] displayed an MIC with Cryptococcus neoformans [4] of 0.53 µg/mL (≈ 1.73 µM).
